Experimental data reported in patent EP1228058B1, “BENZOPYRANYL GUANIDINE DERIVATIVES, PROCESS FOR PREPARATION THEREOF, AND PHARMACEUTICAL COMPOSITIONS CONTAINING THEM” (Dongbu Hannong Chemical Co., Ltd., priority 1999, dated 2001).

Tests used:
rat aorta = assay: Vasodilation effects on isolated blood vessels of rats (methoxamine-constricted aortic rings); assay type: cell-based; conditions: isolated rat aorta constricted with methoxamine (3 uM); read-out: Vasodilation Activity (in Vitro, rat aorta) (IC50)
[1] = test system: cerebral cortical neurons; assay: Protective activity for neurons against iron-induced death (LDH release); assay type: cell-based; conditions: Rattus norvegicus, Cortical neurone, FeSO4 50 uM, 24 hours, LDH reduction, read-out: % Protection
Description: From the brains of 17-18 day-old rat embryos, cerebral cortical neurons were isolated and then, cultured at 37 °C for 7-9 days in a 5% CO2 incubator. The cortical cell cultures were washed twice with a minimum essential medium (MEM) to reduce the serum concentration to 0.2 % and pre-treated for 30 min with 10 uM and 30 uM of each of test compounds. For the experiments, the test compounds were dissolved in DMSO and diluted in a medium. At this time, the final concentration of DMSO was not allowed to exceed 0.2 %. For a control group, only vehicle was applied.
After the pre-treatment with test compounds or vehicle, FeSO4 was added to a final concentration of 50 uM, and the cultures were maintained for 24 hours in a CO2 incubator. During incubation, lactate dehydrogenase (LDH) was released into the medium upon neuronal death by the oxidative toxicity of iron. The extent of neuronal damage was assessed by measuring the amount of LDH secreted into the media. The protective effect of the compounds of interest on neurons was evaluated by calculating the LDH reduction rate of treatment group compared with that of the control group.

HUVEC = assay: Inhibition of HUVEC tube formation on Matrigel; assay type: cell-based, Human; design: key: -: no effect; +/-: week effect; +: moderate effect; ++: strong effect
Description: HUVEC (Human umbilical vein endothelial cells, ATCC CRL-1730) were cultured, and tubulogenesis was induced in vascular endothelial cells by plating them onto the surface of Matrigel for several hours. The effects on tube formation of the test compounds were compared with the vehicle treated controls, then confirmed their in vitro anti-angiogenic effect indirectly.

[2] = Acute oral toxicity test in rats; conditions: rat, in vivo, single oral dose in 0.5% methyl cellulose, read-out: lethal dose (LD50) for oral administration
Summary of the method: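 Six-week-old SPF SD rats, two per group, received a single oral dose of 1 g/kg suspended in 0.5% methyl cellulose (10 ml/kg). Survivors at the end of observation underwent haematology, serum chemistry, necropsy and histopathology of vital organs with macroscopic lesions.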

[3] = ORAC (oxygen-radical absorbance capacity) assay; assay type: biochemical; conditions: 1 ORAC unit = net protection by 1 uM Trolox
Description: The method utilized β-PE (β-phycoerythrin) as an indicator protein, and AAPH (2,2'-azobis(2-amidinopropane) dihydrochloride) as a peroxy radical generator. Reaction mixtures consisted of test compounds (10^-6M and 10^-4M), β-PE (1.76 x 10^-8M), and AAPH (3 x 10^-3 M) in 75 mM phosphate buffer (pH 7.0). A final volume of 2 ml was used in 24 well plates. Test compounds were first dissolved in acetone and then added to the reaction mixture. Once AAPH was added, the reaction was initiated at 37 °C and the fluorescence (485 nm excitation, 590 nm emission) was measured every 5 min using Fluorescence reader (FL600, Biotek Instrument). The ORAC units were calculated based on the area under the fluorescence curve of β-PE in the presence of the test compound compared to the area generated by 1 uM Trolox. 1 ORAC unit represents the net protection provided by 1 uM Trolox.

| SMILES | IC50 (rat aorta) [µM] | inhibition at 10 µM [1] [%] | inhibition at 30 µM [1] [%] | Inhibitory Effects on Tube Formation (HUVEC; 100 uM) | LD50 [2] [mg/kg] | Inhibitory Effects on Tube Formation (HUVEC; 10 uM) | ORAC units ([3]; Conc. 10^-4 M) [ORAC units] | ORAC units ([3]; Conc. 10^-6 M) [ORAC units] |
| --- | --- | --- | --- | --- | --- | --- | --- | --- |
| COC(OC)[C@@]1(C)Oc2ccc([N+](=O)[O-])cc2[C@H](NC(=NC#N)NCc2ccccc2)[C@H]1O [Example 24, (2S, 3R, 4S)-N''-cyano-N-(6-nitro-3,4-dihydro-3-hydroxy-2-methyl-2-dimethoxymethyl-2H-benzopyran-4-yl)-N'-benzylguanidine] | 9.78 | 29 | 47 | + | > 1000 |  |  |  |
| COC(OC)[C@@]1(C)Oc2ccc([N+](=O)[O-])cc2[C@@H](NC(=NC#N)NCc2ccccc2)[C@@H]1O [Example 25, (2S, 3S, 4R)-N''-cyano-N-(6-nitro-3,4-dihydro-3-hydroxy-2-methyl-2-dimethoxymethyl-2H-benzopyran-4-yl)-N'-benzylguanidine] | > 30 |  | 69 |  | > 1000 |  |  |  |
| COC(OC)[C@@]1(C)Oc2ccc([N+](=O)[O-])cc2[C@H](NC(=NC#N)Nc2ccccc2Cl)[C@H]1O [Example 32, (2S, 3R, 4S)-N''-cyano-N-(6-nitro-3,4-dihydro-3-hydroxy-2-methyl-2-dimethoxymethyl-2H-benzopyran-4-yl)-N'-(2-chlorophenyl)guanidine] | 3.57 |  |  |  | > 1000 |  |  |  |
| COC(OC)[C@@]1(C)Oc2ccc([N+](=O)[O-])cc2[C@@H](NC(=NC#N)NCc2ccccc2)[C@@H]1OC(C)=O [Example 38, (2S, 3S, 4R)-N''-cyano-N-(6-nitro-3,4-dihydro-3-acetoxy-2-methyl-2-dimethoxymethyl-2H-benzopyran-4-yl)-N'-benzylguanidine] | 24.5 | 56 | 78 |  | > 1000 |  |  |  |
| COC(OC)[C@@]1(C)Oc2ccc(N)cc2[C@@H](NC(=NC#N)NCc2ccccc2)[C@@H]1O [Example 40, (2S, 3S, 4R)-N''-cyano-N-(6 - amino-3,4-dihydro-3-hydroxy-2-methyl-2-dimethoxymethyl-2H-benzopyran-4-yl)-N'-benzylguanidine] | > 30 | 45 | 97 | ++ | > 1000 | + | 3.250 | 2.047 |
